Experimental data: patent publication US20220062240A1, “METHODS OF TREATING CANCER USING A CLK INHIBITOR” (BioSplice Therapeutics, Inc., priority 2018, published 2022)
Read-outs that look alike come from different tables or passages of the source.

How the values were obtained:
CLK2 = biological target: T1, CLK2 (Homo sapiens, UniProt P49760); assay: CLK2 kinase activity assay (Z-lyte, Ser/Thr 6 peptide); type: biochemical; conditions: recombinant CLK2 kinase, ATP 60 μM; read-out: EC50
T1 construct: purchased Thermo Fisher (Life Technologies), Z'-LYTE Kinase Assay Kits
Method: All reactions were performed in duplicate.

BT-549 = assay: CellTiter-Glo Viability Assay, breast cancer; type: cell-based; conditions: Homo sapiens, 96 h; BT-549, breast cancer, four days; read-out: EC50
CAMA1 = assay: CellTiter-Glo Viability Assay, breast cancer; type: cell-based; conditions: Homo sapiens, CAMA-1, 96 h; CAMA1, breast cancer, four days; read-out: EC50
DU4475 = assay: CellTiter-Glo Viability Assay, breast cancer; type: cell-based; conditions: Homo sapiens, DU-4475, 96 h; DU4475, breast cancer, four days; read-out: EC50
HCC1599 = assay: CellTiter-Glo Viability Assay, breast cancer; type: cell-based; conditions: Homo sapiens, 96 h; HCC1599, breast cancer, four days; read-out: EC50
MCF7 = assay: CellTiter-Glo Viability Assay, breast cancer; type: cell-based; conditions: Homo sapiens, 96 h; MCF7, breast cancer, four days; read-out: EC50
MDA-MB-231-Luc = assay: CellTiter-Glo Viability Assay, breast cancer; type: cell-based; conditions: Homo sapiens, 96 h; MDA-MB-231-Luc, breast cancer, four days; read-out: EC50
T47D = assay: CellTiter-Glo Viability Assay, breast cancer; type: cell-based; conditions: Homo sapiens, 96 h, breast cancer, four days, read-out: EC50
ZR-75-1 = assay: CellTiter-Glo Viability Assay, breast cancer; type: cell-based; conditions: Homo sapiens, 96 h; ZR-75-1, breast cancer, four days; read-out: EC50
all 50 cell lines = assay: CellTiter-Glo Viability Assay, average across all cell lines; type: cell-based; conditions: Homo sapiens; across all 50 cell lines; read-out: average EC50 for inhibition of cancer cell proliferation
Method in brief: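 Proliferation of a multi-tissue human cancer line panel is assessed over four days at 37° C and 5% CO2, seeding 300-3,000 cells/well. Viability is quantified by CellTiter-Glo luminescence, and EC50 values are calculated.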

[1] = test system: colorectal cancer (6 cell lines); assay: CellTiter-Glo Viability Assay, colorectal cancer; type: cell-based; conditions: Homo sapiens, inhibition of cancer cell proliferation
[2] = test system: haematopoietic & lymphoid tumors (13 cell lines); assay: CellTiter-Glo Viability Assay, haematopoietic & lymphoid tumors; type: cell-based; conditions: Homo sapiens, inhibition of cancer cell proliferation
[3] = test system: liver cancer (3 cell lines); assay: CellTiter-Glo Viability Assay, liver cancer; type: cell-based; conditions: Homo sapiens, inhibition of cancer cell proliferation
[4] = test system: lung cancer (4 cell lines); assay: CellTiter-Glo Viability Assay, lung cancer; type: cell-based; conditions: Homo sapiens, inhibition of cancer cell proliferation
[5] = test system: ovarian cancer (4 cell lines); assay: CellTiter-Glo Viability Assay, ovarian cancer; type: cell-based; conditions: Homo sapiens, inhibition of cancer cell proliferation
[6] = test system: pancreatic cancer (8 cell lines); assay: CellTiter-Glo Viability Assay, pancreatic cancer; type: cell-based; conditions: Homo sapiens, inhibition of cancer cell proliferation
[7] = test system: prostate cancer (5 cell lines); assay: CellTiter-Glo Viability Assay, prostate cancer; type: cell-based; conditions: Homo sapiens
CLK3 = CLK3 (Homo sapiens, UniProt P49761); assay: CLK3 kinase activity assay (Z-lyte, Ser/Thr 18 peptide)
Sequence of CLK3 (P49761 whole entry): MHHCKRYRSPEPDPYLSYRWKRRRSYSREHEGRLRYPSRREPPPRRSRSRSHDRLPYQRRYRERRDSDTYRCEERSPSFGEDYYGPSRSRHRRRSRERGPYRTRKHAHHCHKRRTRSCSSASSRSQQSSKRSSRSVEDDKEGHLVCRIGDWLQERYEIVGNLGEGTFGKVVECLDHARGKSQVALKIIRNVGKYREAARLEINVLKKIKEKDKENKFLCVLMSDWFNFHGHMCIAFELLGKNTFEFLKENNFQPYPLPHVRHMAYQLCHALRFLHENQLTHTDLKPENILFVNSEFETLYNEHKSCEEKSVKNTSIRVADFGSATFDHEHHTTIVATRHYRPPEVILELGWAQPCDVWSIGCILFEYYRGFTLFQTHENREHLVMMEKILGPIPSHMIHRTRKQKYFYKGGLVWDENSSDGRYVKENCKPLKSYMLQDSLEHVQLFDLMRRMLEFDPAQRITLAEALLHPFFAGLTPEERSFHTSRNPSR

T1 sequence (P49760 whole entry): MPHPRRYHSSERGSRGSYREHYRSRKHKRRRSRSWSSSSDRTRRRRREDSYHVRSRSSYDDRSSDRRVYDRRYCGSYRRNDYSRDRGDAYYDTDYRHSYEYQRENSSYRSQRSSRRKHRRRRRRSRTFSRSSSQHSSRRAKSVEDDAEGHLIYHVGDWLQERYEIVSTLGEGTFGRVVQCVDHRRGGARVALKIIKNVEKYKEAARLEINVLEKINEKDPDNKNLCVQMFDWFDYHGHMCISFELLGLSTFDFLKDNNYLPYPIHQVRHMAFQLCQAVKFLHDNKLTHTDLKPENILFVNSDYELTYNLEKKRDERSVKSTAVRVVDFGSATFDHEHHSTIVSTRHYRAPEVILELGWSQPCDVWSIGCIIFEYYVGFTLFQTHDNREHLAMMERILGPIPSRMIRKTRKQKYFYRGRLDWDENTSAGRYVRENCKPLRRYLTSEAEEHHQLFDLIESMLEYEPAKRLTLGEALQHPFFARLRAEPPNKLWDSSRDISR

CN1CCC(Oc2ccc(NC(=O)c3n[nH]c4cc(F)c(-c5cnn(C)c5)cc34)cc2)CC1 [Compound 61]
EC50 (CLK2): 0.6 nM
EC50 (BT-549): 786 nM
EC50 (CAMA1): 3850 nM
EC50 (DU4475): 411 nM
EC50 (HCC1599): 367 nM
EC50 (MCF7): 3390 nM
EC50 (MDA-MB-231-Luc): 2040 nM
EC50 (T47D): 3550 nM
EC50 (ZR-75-1): 1840 nM
EC50 (all 50 cell lines): 1220 nM
EC50 ([1]; HCT-116, HCT116 cell line, read-out: Colorectal cancer, EC50 (μM) HCT116): 0.611 µM
EC50 ([1]; HT-29, HT29 cell line, read-out: Colorectal cancer, EC50 (μM) HT29): 1.7 µM
EC50 ([1]; SW-620, SW620 cell line, read-out: Colorectal cancer, EC50 (μM) SW620): 0.418 µM
EC50 ([1]; DLD-1 cell line, read-out: Colorectal cancer, EC50 (μM) DLD-1): 0.644 µM
EC50 ([1]; SW48 cell line, read-out: Colorectal cancer, EC50 (μM) SW48): 0.151 µM
EC50 ([1]; SW480 cell line, read-out: Colorectal cancer, EC50 (μM) SW480): 0.769 µM
EC50 ([2]; DND41, DND-41 cell line, read-out: Haematopoietic & Lymphoid tumors, EC50 (μM) DND-41): 0.798 µM
EC50 ([2]; MV4-11, MV-4-11 cell line, read-out: Haematopoietic & Lymphoid tumors, EC50 (μM) MV-4-11): 0.057 µM
EC50 ([2]; Rec1, REC-1 cell line, read-out: Haematopoietic & Lymphoid tumors, EC50 (μM) REC-1): 0.261 µM
EC50 ([2]; SU-DHL-4, SUDHL4 cell line, read-out: Haematopoietic & Lymphoid tumors, EC50 (μM) SUDHL4): 0.779 µM
EC50 ([2]; HL-60 cell line, read-out: Haematopoietic & Lymphoid tumors, EC50 (μM) HL-60): 1.64 µM
EC50 ([2]; JM1 cell line, read-out: Haematopoietic & Lymphoid tumors, EC50 (μM) JM1): 0.237 µM
EC50 ([2]; JURKAT, Clone E6-1 cell line, read-out: Haematopoietic & Lymphoid tumors, EC50 (μM) JURKAT, Clone E6-1): 0.88 µM
EC50 ([2]; JeKo-1 cell line, read-out: Haematopoietic & Lymphoid tumors, EC50 (μM) JeKo-1): 0.201 µM
EC50 ([2]; KASUMI-1 cell line, read-out: Haematopoietic & Lymphoid tumors, EC50 (μM) KASUMI-1): 0.273 µM
EC50 ([2]; Loucy cell line, read-out: Haematopoietic & Lymphoid tumors, EC50 (μM) Loucy): 0.581 µM
EC50 ([2]; MOLT-4 cell line, read-out: Haematopoietic & Lymphoid tumors, EC50 (μM) MOLT-4): 0.999 µM
EC50 ([2]; TF-1 cell line, read-out: Haematopoietic & Lymphoid tumors, EC50 (μM) TF-1): 1.31 µM
EC50 ([2]; TOLEDO cell line, read-out: Haematopoietic & Lymphoid tumors, EC50 (μM) TOLEDO): 0.182 µM
EC50 ([3]; SNU-398, SNU398 cell line, read-out: Liver cancer, EC50 SNU398): 450 nM
EC50 ([3]; HEPG2 cell line, read-out: Liver cancer, EC50 HEPG2): 1460 nM
EC50 ([3]; PLC/PRF/5 cell line, read-out: Liver cancer, EC50 PLC/PRF/5): 3160 nM
EC50 ([4]; A-427, A427 cell line, read-out: Lung cancer, EC50 (μM) A427): 0.619 µM
EC50 ([4]; HCC78, HCC-78 cell line, read-out: Lung cancer, EC50 (μM) HCC-78): 3.02 µM
EC50 ([4]; NCI-H460 cell line, read-out: Lung cancer, EC50 (μM) NCI-H460): 0.856 µM
EC50 ([4]; NCI-H522 cell line, read-out: Lung cancer, EC50 (μM) NCI-H522): 0.57 µM
EC50 ([5]; PA-1, PA1 cell line, read-out: Ovarian cancer, EC50 (μM) PA1): 0.819 µM
EC50 ([5]; TOV112D, TOV-112D cell line, read-out: Ovarian cancer, EC50 (μM) TOV-112D): 0.533 µM
EC50 ([5]; OV-90 cell line, read-out: Ovarian cancer, EC50 (μM) OV-90): 1.98 µM
EC50 ([5]; OVCAR-3 cell line, read-out: Ovarian cancer, EC50 (μM) OVCAR-3): 0.568 µM
EC50 ([6]; BXPC-3, BxPC3 cell line, read-out: Pancreatic cancer, EC50 BxPC3): 2030 nM
EC50 ([6]; CAPAN-1, Capan1 cell line, read-out: Pancreatic cancer, EC50 Capan1): 2090 nM
EC50 ([6]; Capan-2, Capan2 cell line, read-out: Pancreatic cancer, EC50 Capan2): 2720 nM
EC50 ([6]; MIA PaCa-2 cell line, read-out: Pancreatic cancer, EC50 MIA PaCa-2): 438 nM
EC50 ([6]; PANC 05.04 cell line, read-out: Pancreatic cancer, EC50 PANC 05.04): 2260 nM
EC50 ([6]; PANC-1 cell line, read-out: Pancreatic cancer, EC50 PANC-1): 2160 nM
EC50 ([6]; UPAFII cell line, read-out: Pancreatic cancer, EC50 UPAFII): 1030 nM
EC50 ([7]; DU-145, read-out: Prostate cancer EC50 Du-145): 1260 nM
EC50 ([7]; PC-3, PC3 cell line, inhibition of cancer cell proliferation, read-out: Prostate cancer EC50 PC3): 1230 nM
EC50 ([7]; 22Rv1 cell line, inhibition of cancer cell proliferation, read-out: Prostate cancer EC50 22Rv1): 672 nM
EC50 ([7]; LNCap clone FGC cell line, inhibition of cancer cell proliferation, read-out: Prostate cancer EC50 LNCap clone FGC): 779 nM
EC50 ([7]; VCaP (Sigma) cell line, inhibition of cancer cell proliferation, read-out: Prostate cancer EC50 VCaP (Sigma)): 1480 nM
EC50 (CLK3): 49.1 nM
